Tested on: 677734-321-R-J1-PDC complex spheroid viability
Assay: Anticancer human tumor 677734-321-R-J1-PDC patient-derived soft tissue sarcoma cell line growth inhibition [POLQ]
Details: for IC50: curve of first compound; for viability, T/C: stronger effect = lower value
Method: Multicellular complex tumor spheroid response to Polymerase (POL) inhibitors (novobiocin, ART-558, RP6685) in combination with a variety of drugs and investigational agents in selected tumor cell lines
The POL inhibitors (novobiocin, ART-558, and RP6685) were evaluated both individually and in combination with standard of care and investigational anticancer small molecules within a complex spheroid model of solid tumors. . Complex spheroids include a stromal component modeled by human endothelial cells (HUVEC) and fibroblasts modeled by human mesenchymal stem cells (MSCs). The concentration ranges selected for each drug and investigational agent were based upon clinically achievable concentrations if the clinical Cmax of the agent was known.
Compounds. The drugs and investigational agents: novobiocin (NSC847541), ART-558 (NSC835418), RP-6685 (NSC848927), peposertib (NSC802822), ceralasertib (NSC780249), elimusertib (NSC800525), camonsertib (NSC841442), AZD-1390 (NSC803789), olaparib (NSC753686), talazoparib (NSC767125), rucaparib (NSC756644), sotorasib (NSC818433), MRTX-1133 (NSC836407), SN-38 (NSC673596), topotecan (NSC609699), epotoside (NSC141540), doxorubicin (NSC123127), gemcitabine (NSC613327), 5-fluorouracil (NSC19893), paclitaxel (NSC125973), vemurafenib (NSC761431), MSA-2 (NSC828583), SN-011 (NSC837082), adavosertib (NSC754352), prexasertib (NSC758257), carboplatin (NSC241240) and oxaliplatin (NSC266046), were obtained from the National Cancer Institute (NCI) Developmental Therapeutics Program Chemical Repository (21). The FDA-approved anticancer drug set is available from the Developmental Therapeutics Program at https://dtp.cancer.gov/organization/dscb/obtaining/. […] The stock solutions were prepared in dimethyl sulfoxide (DMSO, Sigma-Aldrich, St. Louis, MO, cat. D2650), except for the platinum compounds which were prepared in saline (Quality Biological, Gaithersburg, MD, cat. 114-055-101), at 800-fold the tested concentration and stored at -70 degrees C prior to their use. All drugs and investigational agents were tested over a range starting from a high concentration at or near the clinical Cmax and decreasing in half-log increments. If the clinical Cmax for an agent had not been determined, the highest concentration tested was 10 microM, except for SN-38, which was tested at a high concentration of 1 microM.
Cell Culture. All cells were maintained in an incubator at 37 degrees C and 5% CO2 with 95% humidity. The PDC lines were cultured according to standard operating procedures established by the NCI PDMR (https://pdmr.cancer.gov). Table 3 of the manuscript, lists the cell lines along with the number of the three cell types plated to form the mct-spheroids and media for tumor cell growth. After thawing, all PDC lines, except 997537-175-T-J1-PDC and 415267-285-R-J2-PDC, were cultured in Matrigel-coated flasks prepared with a working solution of 1X Ham's F-12 nutrient mix, without supplementation (Thermo Fisher Scientific, cat. 11765054), 100 U/mL penicillin-streptomycin (Thermo Fisher Scientific, cat. 15140122), and 2.5% Matrigel (Corning Inc., Corning, NY, cat. 354248) for the first three passages. The two PDC lines 997537-175-T-J1-PDC and 415267-285-R-J2-PDC were cultured on uncoated flasks. The 857933-349-R-J2-PDC line was cultured in 6C/Colon 1B media containing advanced DMEM/F-12 (Thermo Fisher Scientific, cat. 12634028), 10 mM HEPES (Thermo Fisher Scientific, cat. 15630080), 1X GlutaMAX supplement (Thermo Fisher Scientific, cat. 35050061), 0.1 mg/mL primocin (InvivoGen, San Diego, CA, cat. ant-pm-2), 10% defined fetal bovine serum, heat inactivated (HyClone Laboratories Inc., Logan, UT, cat. SH30070.03HI), 50% L-WRN conditioned media (ATCC, cat. CRL-3276), 1.25 mM N-Acetyl-L-cysteine (Sigma-Aldrich, cat. A9165), 10 mM nicotinamide (Sigma-Aldrich, cat. N0636), 1X B-27 supplement (Thermo Fisher Scientific, cat. 17504044), 1X N-2 supplement (Thermo Fisher Scientific, cat. […]

[1] = second compound 0.0316 µM, first compound 0.0316 µM
[2] = second compound 0.0316 µM, first compound 0.1 µM
[3] = second compound 0.1 µM, first compound 0.0316 µM
[4] = second compound 0.1 µM, first compound 0.1 µM
[5] = second compound 0.316 µM, first compound 0.0316 µM
[6] = second compound 0.316 µM, first compound 0.1 µM
[7] = second compound 1 µM, first compound 0.0316 µM
[8] = second compound 1 µM, first compound 0.1 µM
[9] = second compound 3.16 µM, first compound 0.0316 µM
[10] = second compound 3.16 µM, first compound 0.1 µM
[11] = second compound 10 µM, first compound 0.0316 µM
[12] = second compound 10 µM, first compound 0.1 µM
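Note: spheroids exposed to compounds for one week.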
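Throughout, for viability, T/C: 100% = vehicle DMSO treated spheroids.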

## CC[C@@]1(O)C(=O)OCc2c1cc1n(c2=O)Cc2cc3c(CN(C)C)c(O)ccc3nc2-1 + COC1C(OC(N)=O)C(O)C(Oc2ccc3c(O)c(NC(=O)c4ccc(O)c(CC=C(C)C)c4)c(=O)oc3c2C)OC1(C)C
Second compound 0.0316 µM
  IC50: 25.7 nM
Second compound 0.1 µM
  IC50: 24.6 nM
Second compound 0.316 µM
  IC50: 26.4 nM
Second compound 1 µM
  IC50: 23.6 nM
Second compound 3.16 µM
  IC50: 25.2 nM
Second compound 10 µM
  IC50: 28.8 nM
Second compound 0.0316 µM, first compound 0.000316 µM
  viability, T/C: 104%
Second compound 0.0316 µM, first compound 0.001 µM
  viability, T/C: 112%
Second compound 0.0316 µM, first compound 0.00316 µM
  viability, T/C: 105%
Second compound 0.0316 µM, first compound 0.01 µM
  viability, T/C: 105%
[1]
  viability, T/C: 37.1%
[2]
  viability, T/C: 16.8%
Second compound 0.1 µM, first compound 0.000316 µM
  viability, T/C: 109%
Second compound 0.1 µM, first compound 0.001 µM
  viability, T/C: 108%
Second compound 0.1 µM, first compound 0.00316 µM
  viability, T/C: 109%
Second compound 0.1 µM, first compound 0.01 µM
  viability, T/C: 100%
[3]
  viability, T/C: 33.8%
[4]
  viability, T/C: 18.8%
Second compound 0.316 µM, first compound 0.000316 µM
  viability, T/C: 105%
Second compound 0.316 µM, first compound 0.001 µM
  viability, T/C: 117%
Second compound 0.316 µM, first compound 0.00316 µM
  viability, T/C: 94.2%
Second compound 0.316 µM, first compound 0.01 µM
  viability, T/C: 103%
[5]
  viability, T/C: 39.3%
[6]
  viability, T/C: 16.3%
Second compound 1 µM, first compound 0.000316 µM
  viability, T/C: 113%
Second compound 1 µM, first compound 0.001 µM
  viability, T/C: 109%
Second compound 1 µM, first compound 0.00316 µM
  viability, T/C: 106%
Second compound 1 µM, first compound 0.01 µM
  viability, T/C: 106%
[7]
  viability, T/C: 29.3%
[8]
  viability, T/C: 15.4%
Second compound 3.16 µM, first compound 0.000316 µM
  viability, T/C: 120%
Second compound 3.16 µM, first compound 0.001 µM
  viability, T/C: 108%
Second compound 3.16 µM, first compound 0.00316 µM
  viability, T/C: 110%
Second compound 3.16 µM, first compound 0.01 µM
  viability, T/C: 98.2%
[9]
  viability, T/C: 34.5%
[10]
  viability, T/C: 16%
Second compound 10 µM, first compound 0.000316 µM
  viability, T/C: 109%
Second compound 10 µM, first compound 0.001 µM
  viability, T/C: 106%
Second compound 10 µM, first compound 0.00316 µM
  viability, T/C: 106%
Second compound 10 µM, first compound 0.01 µM
  viability, T/C: 98.9%
[11]
  viability, T/C: 45.6%
[12]
  viability, T/C: 18.7%

## COc1cccc2c1C(=O)c1c(O)c3c(c(O)c1C2=O)CC(O)(C(=O)CO)CC3OC1CC(N)C(O)C(C)O1 (centres undefined) + COC1C(OC(N)=O)C(O)C(Oc2ccc3c(O)c(NC(=O)c4ccc(O)c(CC=C(C)C)c4)c(=O)oc3c2C)OC1(C)C
Second compound 0.0316 µM
  IC50: 104 nM
Second compound 0.1 µM
  IC50: 138 nM
Second compound 0.316 µM
  IC50: 133 nM
Second compound 1 µM
  IC50: 148 nM
Second compound 3.16 µM
  IC50: 130 nM
Second compound 10 µM
  IC50: 139 nM
[1]
  viability, T/C: 84.4%
[2]
  viability, T/C: 51.5%
Second compound 0.0316 µM, first compound 0.316 µM
  viability, T/C: 7.79%
Second compound 0.0316 µM, first compound 1 µM
  viability, T/C: 3.03%
Second compound 0.0316 µM, first compound 3.16 µM
  viability, T/C: 2.77%
Second compound 0.0316 µM, first compound 10 µM
  viability, T/C: 2.45%
[3]
  viability, T/C: 77.6%
[4]
  viability, T/C: 66.7%
Second compound 0.1 µM, first compound 0.316 µM
  viability, T/C: 7.11%
Second compound 0.1 µM, first compound 1 µM
  viability, T/C: 0.57%
Second compound 0.1 µM, first compound 3.16 µM
  viability, T/C: 1.78%
Second compound 0.1 µM, first compound 10 µM
  viability, T/C: 3.77%
[5]
  viability, T/C: 60.4%
[6]
  viability, T/C: 67%
Second compound 0.316 µM, first compound 0.316 µM
  viability, T/C: 7.66%
Second compound 0.316 µM, first compound 1 µM
  viability, T/C: 0.61%
Second compound 0.316 µM, first compound 3.16 µM
  viability, T/C: 2.67%
Second compound 0.316 µM, first compound 10 µM
  viability, T/C: 3.36%
[7]
  viability, T/C: 83.5%
[8]
  viability, T/C: 70.1%
Second compound 1 µM, first compound 0.316 µM
  viability, T/C: 11.2%
Second compound 1 µM, first compound 1 µM
  viability, T/C: 0.59%
Second compound 1 µM, first compound 3.16 µM
  viability, T/C: 1.98%
Second compound 1 µM, first compound 10 µM
  viability, T/C: 2.55%
[9]
  viability, T/C: 74.5%
[10]
  viability, T/C: 62.4%
Second compound 3.16 µM, first compound 0.316 µM
  viability, T/C: 8.7%
Second compound 3.16 µM, first compound 1 µM
  viability, T/C: 0.64%
Second compound 3.16 µM, first compound 3.16 µM
  viability, T/C: 2.76%
Second compound 3.16 µM, first compound 10 µM
  viability, T/C: 2.4%
[11]
  viability, T/C: 68.8%
[12]
  viability, T/C: 67.1%
Second compound 10 µM, first compound 0.316 µM
  viability, T/C: 7.17%
Second compound 10 µM, first compound 1 µM
  viability, T/C: 0.88%
Second compound 10 µM, first compound 3.16 µM
  viability, T/C: 3.28%
Second compound 10 µM, first compound 10 µM
  viability, T/C: 1.86%

Source: PubChem BioAssay AID1963842 (Molecular Pharmacology Branch, DTP, NCI, 2024)
